From patent US8273754B2, “Substituted 1H-pyrazolo[3,4-D]pyrimidine-6-amine compounds” (ArQule, Inc., priority 2008, dated 2012)
Like-named read-outs stand apart in the source and are kept apart here.

Tested on: cancer cells
Experiment: MTS cell growth inhibition assay (72 hours)
Format: cell-based
Method in brief: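 Cells in DMEM with 1% FBS, seeded 18 h, then compound-treated 72 h at 37 °C. Viability by MTS/PMS for 4 h, formazan absorbance at 492 nm; IC50 taken as concentration giving 50% absorbance drop, activity banded by percent inhibition.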

[1] = Homo sapiens, DLD-1, 72 h, DLD-1 cells, read-out: DLD-1 MTS 72 hr at 10 μM
[2] = Homo sapiens, KATO III, 72 h, KATO III cells, read-out: KATO III MTS 72 hr at 10 μM
[3] = Homo sapiens, MDA-MB-231, 72 h, MDA-MB-231 cells, read-out: MDA-MB-231 MTS 72 hr at 10 μM
[4] = Homo sapiens, NCI-H1299, 72 h, NCI-H1299 cells, read-out: NCI-H1299 MTS 72 hr at 10 μM
[5] = PaCa-2, 72 h, PACA-2 cells, read-out: PACA-2 MTS 72 hr at 10 μM

Structure (SMILES)	inhibition at 10 µM [1] [%]	inhibition at 10 µM [2] [%]	inhibition at 10 µM [3] [%]	inhibition at 10 µM [4] [%]	inhibition at 10 µM [5] [%]
Cc1ccc(Oc2ccccc2CN2CC(Nc3nc(N)nc4[nH]ncc34)Cc3ccccc32)cc1 (centres unmarked) [Compound 158, N4-{1-[2-(4-methylphenoxy)benzyl]-1,2,3,4-tetrahydroquinolin-3-yl}-1H-pyrazolo[3,4-d]pyrimidine-4,6-diamine]	> 79	> 79	50 to 79	< 50	> 79
Nc1nc(NC2Cc3ccccc3N(C(=O)c3ccc(F)cc3F)C2)c2cn[nH]c2n1 (centres unmarked) [Compound 86, (3-(6-amino-1H-pyrazolo[3,4-d]pyrimidin-4-ylamino)-3,4-dihydroquinolin-1(2H)-yl)(2,4-difluorophenyl)methanone]	< 50	< 50	< 50	< 50	< 50
Nc1nc(NC2Cc3ccccc3N(S(=O)(=O)c3ccc(-c4ccc(Cl)cc4)cc3)C2)c2cn[nH]c2n1 (centres unmarked) [Compound 75, N4-(1-(4′-chlorobiphenyl-4-ylsulfonyl)-1,2,3,4-tetrahydroquinolin-3-yl)-1H-pyrazolo[3,4-d]pyrimidine-4,6-diamine]	> 79	> 79	> 79	50 to 79	> 79
Nc1nc(NC2Cc3ccccc3N(S(=O)(=O)c3cccc(NC(=O)Nc4c(Cl)cccc4Cl)c3)C2)c2cn[nH]c2n1 (centres unmarked) [Compound 208, 1-[3-({3-[(6-amino-1H-pyrazolo[3,4-d]pyrimidin-4-yl)amino]-3,4-dihydroquinolin-1(2H)-yl}sulfonyl)phenyl]-3-(2,6-dichlorophenyl)urea]	< 50	< 50	< 50	< 50	50 to 79
COc1ccc(OC)c(CC(=O)N2CC(Nc3nc(N)nc4[nH]ncc34)Cc3ccccc32)c1 (centres unmarked) [Compound 105, 1-(3-(6-amino-1H-pyrazolo[3,4-d]pyrimidin-4-ylamino)-3,4-dihydroquinolin-1(2H)-yl)-2-(2,5-dimethoxyphenyl)ethanone]	< 50	< 50	< 50	< 50	< 50
COc1ccc(Br)cc1CN1CC(Nc2nc(N)nc3[nH]ncc23)Cc2ccccc21 (centres unmarked) [Compound 144, N4-[1-(5-bromo-2-methoxybenzyl)-1,2,3,4-tetrahydroquinolin-3-yl]-1H-pyrazolo[3,4-d]pyrimidine-4,6-diamine]	> 79	> 79	> 79	> 79	> 79
Nc1nc(NC2Cc3ccccc3N(S(=O)(=O)c3ccc4ccccc4c3)C2)c2cn[nH]c2n1 (centres unmarked) [Compound 34, N4-(1-(naphthalen-2-ylsulfonyl)-1,2,3,4-tetrahydroquinolin-3-yl)-1H-pyrazolo[3,4-d]pyrimidine-4,6-diamine]	< 50	< 50	< 50	< 50	< 50
Nc1nc(NC2Cc3ccccc3N(S(=O)(=O)c3cccc(NC(=O)Nc4cccc(C(F)(F)F)c4)c3)C2)c2cn[nH]c2n1 (centres unmarked) [Compound 199, 1-[3-({3-[(6-amino-1H-pyrazolo[3,4-d]pyrimidin-4-yl)amino]-3,4-dihydroquinolin-1(2H)-yl}sulfonyl)phenyl]-3-[3-(trifluoromethyl)phenyl]urea]	> 79	> 79	> 79	> 79	> 79
CCc1ccccc1NC(=O)N1CC(Nc2nc(N)nc3[nH]ncc23)Cc2ccccc21 (centres unmarked) [Compound 107, 3-(6-amino-1H-pyrazolo[3,4-d]pyrimidin-4-ylamino)-N-(2-ethylphenyl)-3,4-dihydroquinoline-1(2H)-carboxamide]	< 50	< 50	< 50	< 50	< 50
COc1ccc(OC)c(S(=O)(=O)N2CCC(Nc3nc(N)nc4[nH]ncc34)Cc3ccccc32)c1 (centres unmarked) [Compound 176, N4-{1-[(2,5-dimethoxyphenyl)sulfonyl]-2,3,4,5-tetrahydro-1H-1-benzazepin-4-yl}-1H-pyrazolo[3,4-d]pyrimidine-4,6-diamine]	< 50	< 50	< 50	< 50	< 50
Cc1ccc(Cl)c(NC(=O)Nc2cccc(S(=O)(=O)N3CC(Nc4nc(N)nc5[nH]ncc45)Cc4ccccc43)c2)c1 (centres unmarked) [Compound 218, 1-[3-({3-[(6-amino-1H-pyrazolo[3,4-d]pyrimidin-4-yl)amino]-3,4-dihydroquinolin-1(2H)-yl}sulfonyl)phenyl]-3-(2-chloro-5-methylphenyl)urea]	> 79	> 79	> 79	> 79	> 79
Nc1nc(NC2Cc3ccccc3N(S(=O)(=O)c3ccc(-c4ccc(F)cc4)cc3)C2)c2cn[nH]c2n1 (centres unmarked) [Compound 65, N4-(1-(4′-fluorobiphenyl-4-ylsulfonyl)-1,2,3,4-tetrahydroquinolin-3-yl)-1H-pyrazolo[3,4-d]pyrimidine-4,6-diamine]	50 to 79	> 79	50 to 79	50 to 79	> 79
Nc1nc(NC2Cc3ccccc3N(C(=O)Cc3cccc4ccccc34)C2)c2cn[nH]c2n1 (centres unmarked) [Compound 98, 1-(3-(6-amino-1H-pyrazolo[3,4-d]pyrimidin-4-ylamino)-3,4-dihydroquinolin-1(2H)-yl)-2-(naphthalen-1-yl)ethanone]	< 50	< 50	< 50	< 50	< 50
N#Cc1cc(CN2CC(Nc3nc(N)nc4[nH]ncc34)Cc3ccccc32)ccc1F (centres unmarked) [Compound 138, 5-({3-[(6-amino-1H-pyrazolo[3,4-d]pyrimidin-4-yl)amino]-3,4-dihydroquinolin-1(2H)-yl}methyl)-2-fluorobenzonitrile]	< 50	< 50	< 50	< 50	< 50
Nc1nc(NC2Cc3ccccc3N(Cc3ccc(-c4ccccn4)cc3)C2)c2cn[nH]c2n1 (centres unmarked) [Compound 143, N4-[1-(4-pyridin-2-ylbenzyl)-1,2,3,4-tetrahydroquinolin-3-yl]-1H-pyrazolo[3,4-d]pyrimidine-4,6-diamine]	< 50	< 50	< 50	< 50	< 50
Nc1nc(NC2Cc3ccccc3N(C(=O)c3cc(Cl)cc(Cl)c3)C2)c2cn[nH]c2n1 (centres unmarked) [Compound 90, (3-(6-amino-1H-pyrazolo[3,4-d]pyrimidin-4-ylamino)-3,4-dihydroquinolin-1(2H)-yl)(3,5-dichlorophenyl)methanone]	> 79	> 79	> 79	> 79	> 79
Cc1ccc(F)c(CN2CC(Nc3nc(N)nc4[nH]ncc34)Cc3ccccc32)c1 (centres unmarked) [Compound 135, N4-[1-(2-fluoro-5-methylbenzyl)-1,2,3,4-tetrahydroquinolin-3-yl]-1H-pyrazolo[3,4-d]pyrimidine-4,6-diamine]	> 79	> 79	50 to 79	50 to 79	> 79
COc1cc(CN2CC(Nc3nc(N)nc4[nH]ncc34)Cc3ccccc32)ccc1F (centres unmarked) [Compound 146, N4-[1-(4-fluoro-3-methoxybenzyl)-1,2,3,4-tetrahydroquinolin-3-yl]-1H-pyrazolo[3,4-d]pyrimidine-4,6-diamine]	> 79	> 79	> 79	50 to 79	> 79
Nc1nc(NC2Cc3ccccc3N(S(=O)(=O)c3ccc(NC(=O)Nc4ccc5ccccc5c4)cc3)C2)c2cn[nH]c2n1 (centres unmarked) [Compound 189, 1-[4-({3-[(6-amino-1H-pyrazolo[3,4-d]pyrimidin-4-yl)amino]-3,4-dihydroquinolin-1(2H)-yl}sulfonyl)phenyl]-3-(2-naphthyl)urea]	> 79	> 79	> 79	> 79	> 79
CC(C)c1cccc(C(C)C)c1NC(=O)N1CC(Nc2nc(N)nc3[nH]ncc23)Cc2ccccc21 (centres unmarked) [Compound 112, 3-(6-amino-1H-pyrazolo[3,4-d]pyrimidin-4-ylamino)-N-(2,6-diisopropylphenyl)-3,4-dihydroquinoline-1(2H)-carboxamide]	< 50	< 50	< 50	< 50	< 50
Cc1ccc(CN2CC(Nc3nc(N)nc4[nH]ncc34)Cc3ccccc32)c(C)c1 (centres unmarked) [Compound 134, N4-[1-(2,4-dimethylbenzyl)-1,2,3,4-tetrahydroquinolin-3-yl]-1H-pyrazolo[3,4-d]pyrimidine-4,6-diamine]	> 79	> 79	< 50	< 50	50 to 79
Nc1nc(NC2Cc3ccccc3N(Cc3ccc(-c4cccs4)cc3)C2)c2cn[nH]c2n1 (centres unmarked) [Compound 136, N4-{1-[4-(2-thienyl)benzyl]-1,2,3,4-tetrahydroquinolin-3-yl}-1H-pyrazolo[3,4-d]pyrimidine-4,6-diamine]	> 79	> 79	< 50	< 50	< 50
